The values that follow come from ChEMBL document CHEMBL3046029, “Green approach towards the facile synthesis of dihydropyrano(c)chromene and pyrano[2,3-d]pyrimidine derivatives and their biological evaluation” (2013).

Assay [1] has as its system Citrobacter freundii. As to the kind of experiment: Antibacterial activity against Citrobacter freundii ATCC 8090 = MTCC 1658 assessed as diameter of growth inhibition zone at 20 mg/ml after 24 hr by disk diffusion method. The following applies: ATCC 8090 = MTCC 1658, 24 h, read-out: DIZ. The assay is classed as functional.
Assay [2] relates to Salmonella typhi. Briefly: Antibacterial activity against Salmonella enterica subsp. enterica serovar Typhi ATCC 19430 assessed as diameter of growth inhibition zone at 20 mg/ml after 24 hr by disk diffusion method. Type of assay: functional. The note with it: ATCC 19430, 24 h, read-out: DIZ. Background: Agar diffusion results depend on both activity and mobility in agar.
Assay [3] deals with Pseudomonas aeruginosa. Briefly: Antibacterial activity against Pseudomonas aeruginosa ATCC 27853 assessed as diameter of growth inhibition zone at 20 mg/ml after 24 hr by disk diffusion method. Type of assay: functional. The note with it: ATCC 27853, 24 h, read-out: DIZ.
For assay [4], the system named is Salmonella typhi. As to the kind of experiment: Antibacterial activity against Salmonella enterica subsp. enterica serovar Typhi ATCC 19430 assessed as growth inhibition after 24 hr by disk diffusion method. The assay is classed as functional.
Assay [5] relates to Escherichia coli. Briefly: Antibacterial activity against Escherichia coli ATCC 25922 assessed as diameter of growth inhibition zone at 20 mg/ml after 24 hr by disk diffusion method. Type of assay: functional. The note with it: ATCC 25922, 24 h, read-out: DIZ.
Assay [6] has as its system Klebsiella pneumoniae. Briefly: Antibacterial activity against Klebsiella pneumoniae ATCC 15380 assessed as diameter of growth inhibition zone at 20 mg/ml after 24 hr by disk diffusion method. The assay is classed as functional. The following applies: ATCC 15380, 24 h, read-out: DIZ.
For assay [7], the system named is Priestia megaterium. As to the kind of experiment: Antibacterial activity against Bacillus megaterium ATCC 12872 assessed as diameter of growth inhibition zone at 20 mg/ml after 24 hr by disk diffusion method. Type of assay: functional. The following applies: ATCC 12872, 24 h, read-out: DIZ.
In assay [8] the test system is OVCAR-3. As to the kind of experiment: Anticancer activity against Homo sapiens (human) OVCAR3 cells at 0.1 to 100 uM by SRB assay. The assay is classed as functional, cell-based. For orientation: Sulforhodamine B stains cellular protein and so reports cell mass.
The test system of assay [9] is MDA-MB-435. Briefly: Anticancer activity against Homo sapiens (human) MDA-MB-435 cells at 0.1 to 100 uM by SRB assay. Type of assay: functional, cell-based.
The test system of assay [10] is PC-3. Briefly: Anticancer activity against Homo sapiens (human) PC3 cells at 0.1 to 100 uM by SRB assay. The assay is classed as functional, cell-based.

The source made the active and inactive calls. The calls are words filed in the database; no cut-off is given here.

For the molecule `N#CC1=C(N)Oc2[nH]c(=O)[nH]c(=O)c2C1c1cccs1` (stereo not drawn), the zone of inhibition at 20000 µg/mL was 12 mm in [1]; 22 mm in assay [2]; 18 mm in assay [3]; 15 mm in assay [5]; 20 mm in assay [6]; 12 mm in assay [7]. The MIC in [4] was 10 µg.
On to `N#CC1=C(N)Oc2[nH]c(=O)[nH]c(=O)c2C1c1ccc[nH]1` (stereo not drawn), for which the zone of inhibition at 20000 µg/mL was found to be 12 mm in assay [1]; 22 mm in [2]; 18 mm in [3]; 14 mm in assay [5]; 20 mm in assay [6]; 12 mm in assay [7]. For the same molecule, in assay [4], the MIC was found to be 10 µg.
On to `CC1(C)CC(=O)C2=C(C1)OC(N)=C(C#N)C2c1ccco1` (stereo not drawn), for which the zone of inhibition at 20000 µg/mL in assay [1] worked out at 10 mm; in [2], 15 mm; in assay [3] it was 14 mm; in assay [5], 16 mm; in [6] it was 15 mm; in assay [7], 12 mm. Further, the result in assay [8], in assay [9] and in assay [10] was inactive. Moreover, the MIC in assay [4] was 10 µg.
For `Cc1ccc(C2C(C#N)=C(N)OC3=C2C(=O)CC(C)(C)C3)s1` (stereo not drawn), the zone of inhibition at 20000 µg/mL was 10 mm in assay [1]; 19 mm in assay [2]; 22 mm in assay [3]; 22 mm in [5]; 21 mm in assay [6]; 10 mm in assay [7]. For the same molecule, the MIC in assay [4] was found to be 10 µg.
Take `Cc1ccc(C2C(C#N)=C(N)OC3=C2C(=O)CC(C)(C)C3)o1` (stereo not drawn): the zone of inhibition at 20000 µg/mL in [1] amounted to 10 mm; in assay [2], 16 mm; in assay [3], 15 mm; in assay [5], 17 mm; in assay [6] it was 15 mm; in [7], 12 mm. In [4], the MIC worked out at 10 µg.
As for `CC1(C)CC(=O)C2=C(C1)OC(N)=C(C#N)C2c1cccs1` (stereo not drawn), the zone of inhibition at 20000 µg/mL in [1] came out at 10 mm; in assay [2], 22 mm; in assay [3] it was 20 mm; in assay [5], 20 mm; in [6], 19 mm; in assay [7], 10 mm. In addition, the MIC in [4] was determined as 10 µg.
On to `COc1cccc2c1C(=O)c1c(O)c3c(c(O)c1C2=O)C[C@@](O)(C(=O)CO)C[C@@H]3O[C@H]1C[C@H](N)[C@H](O)[C@H](C)O1`, for which the outcome in assay [8], in assay [9] and in assay [10] was Active.
In the case of `N#CC1=C(N)Oc2[nH]c(=O)[nH]c(=O)c2C1c1ccco1` (stereo not drawn), the zone of inhibition at 20000 µg/mL in assay [1] amounted to 10 mm; in assay [2] it was 18 mm; in assay [3] it was 14 mm; in [5], 12 mm; in [6] it was 16 mm; in assay [7] it was 14 mm. Further, the result in assay [8], in assay [9] and in assay [10] was inactive. Also, in assay [4], the MIC was 10 µg.
Take `CC1(C)CC(=O)C2=C(C1)OC(N)=C(C#N)C2c1ccc[nH]1` (stereo not drawn): the zone of inhibition at 20000 µg/mL in [1] came to 10 mm; in assay [2], 22 mm; in assay [3] it was 20 mm; in [5], 20 mm; in assay [6] it was 19 mm; in assay [7] it was 12 mm. In addition, in [4], the MIC worked out at 10 µg.
Regarding `Cc1ccsc1C1C(C#N)=C(N)Oc2[nH]c(=O)[nH]c(=O)c21` (stereo not drawn), the zone of inhibition at 20000 µg/mL in assay [1] was found to be 12 mm; in assay [2], 21 mm; in assay [3], 20 mm; in assay [5] it was 16 mm; in assay [6], 22 mm; in [7] it was 10 mm. In addition, in [4], the MIC is 10 µg.
As for `Cc1ccsc1C1C(C#N)=C(N)OC2=C1C(=O)CC(C)(C)C2` (stereo not drawn), the zone of inhibition at 20000 µg/mL was 10 mm in [1]; 19 mm in [2]; 22 mm in [3]; 21 mm in [5]; 20 mm in assay [6]; 12 mm in [7]. In [4], the MIC was determined as 10 µg.
Regarding `Cc1ccc(C2C(C#N)=C(N)Oc3[nH]c(=O)[nH]c(=O)c32)s1` (stereo not drawn), the zone of inhibition at 20000 µg/mL in assay [1] came to 12 mm; in assay [2] it was 20 mm; in [3], 22 mm; in [5], 16 mm; in assay [6] it was 22 mm; in [7] it was 10 mm. For the same molecule, in assay [4], the MIC stood at 10 µg.
Turning to `Cc1ccc(C2C(C#N)=C(N)Oc3[nH]c(=O)[nH]c(=O)c32)o1` (stereo not drawn), the zone of inhibition at 20000 µg/mL in assay [1] was determined as 10 mm; in assay [2], 18 mm; in assay [3] it was 15 mm; in [5], 12 mm; in assay [6], 17 mm; in assay [7] it was 14 mm. The MIC in assay [4] was found to be 10 µg.
